Assay [1] has as its system rat model of spontaneous sleep apnea. The experiment in a line: Spontaneous sleep apnea in freely moving rats after GR38032F (Example 2). The format is in vivo, rat (Sprague-Dawley). The conditions noted are these: 1 mg/kg i.p. How it is done:
Adult, male Sprague-Dawley rats (Sasco-King, Wilmington, Mass.; usually 8 per test group; 300 g) were maintained on a 12-hour light (08:00–20:00 hour)/12-hour dark (20:00–08:00 hour) cycle for one week, housed in individual cages and given ad libitum access to food and water. Following the one week of acclimatization, animals were subjected to the following surgical procedures.
Acclimatized animals were anesthetized for the implantation of cortical electrodes for electroencephalogram (EEG) recording and neck muscle electrodes for electromyogram (EMG) recording using a mixture of ketamine (Vedco, Inc., St. Joseph, Mo.; 100 mg/ml) and acetylpromazine (Vedco, Inc., St. Joseph, Mo.; 10 mg/ml; 4:1, volume/volume) at a volume of 1 ml/kg body weight. The surface of the skull was exposed surgically and cleaned with a 20% solution of hydrogen peroxide followed by a solution of 95% isopropyl alcohol. Next, a dental preparation of sodium fluoride (Flura-GEL®, Saslow Dental, Mt. Prospect, Ill.) was applied to harden the skull above the parietal cortex and allowed to remain in place for 5 minutes. The fluoride mixture was then removed from the skull above the parietal cortex. The EEG electrodes consisting of four stainless steel machine screws, having leads attached thereto, were threaded into the skull to rest on the dura over the parietal cortex. A thin layer of Justi® resin cement (Saslow Dental, Mt. Prospect, Ill.) was applied to cover the screw heads (of screws implanted in the skull) and surrounding skull to further promote the adhesion of the implant. EMG electrodes consisting of two ball-shaped wires were inserted into the bilateral neck musculature. All leads (i.e., EEG and EMG leads) were soldered to a miniature connector (39F1401, Newark Electronics, Schaumburg, Ill.). Lastly, the entire assembly was fixed to the skull with dental cement.
After surgery, all animals were allowed to recover for one week before being subjected to another surgery that involved implantation of a radiotelemetry transmitter (TA11-PXT, Data Sciences International, St. Paul, Minn.) for monitoring blood pressure (BP) and heart period (HP), estimated as pulse interval. After the animals were anesthetized (as described above), the hair from the subxiphoid space to the pelvis was removed. The entire area was scrubbed with iodine and rinsed with alcohol and saline. A 4–6 cm midline abdominal incision was made to allow good visualization of the area from the bifurcation of the aorta to the renal arteries. A retractor was used to expose the contents of the abdomen and the intestine was held back using saline moistened gauze sponges. The aorta was dissected from the surrounding fat and connective tissues using sterile cotton applicators. A 3-0 silk suture was placed beneath the aorta and traction was applied to the suture to restrict the blood flow. Then the implant (TA11-PXT) was held by forceps while the aorta was punctured just cranial to the bifurcation using a 21-gauge needle bent at the beveled end. The tip of the catheter was inserted under the needle using the needle as a guide until the thin-walled BP sensor section was within the vessel. […]
Physiological parameters (see below) from each animal were recorded on 2 occasions in random order, with recordings for an individual animal separated for at least 3 days. […]

The test system of assay [2] is spontaneous sleep-related central apneas. As to the kind of experiment: Induction and suppression of sleep apneas by serotonin and GR38032F (Example 3). The format is in vivo, rat (Sprague-Dawley). The protocol: Ten adult male Sprague-Dawley rats (Sasco-King, Wilmington, Mass.; 300 g) were maintained on a 12-h light (08:00–20:00 hour)/12-hour dark (20:00–08:00) cycle for one week, housed in individual cages, and given ad libitum access to food and water. Following the one week of acclimatization, animals were prepared for physiological testing via the surgical procedures (i.e., implantation of cortical electrodes for EEG recording and neck muscle electrodes for EMG recording, implantation of a radiotelemetry transmitter for BP and HP monitoring) as set forth above in Example 1. After completion of the surgical procedures, animals were allowed a one week recovery period prior to use in the present study. Each animal was recorded on four occasions, with recordings for an individual animal separated by at least three days. Fifteen minutes prior to each recording, each animal received (via intraperitoneal injection), in random order, one of the following: (a) saline solution (control); (b) 0.79 mg/kg serotonin; (c) 0.1 mg/kg GR38032F plus 0.79 mg/kg serotonin; or (d) 0.1 mg/kg GR38032F. For the GR38032F+serotonin test group, 0.1 mg/kg GR38032F was administered at time 09:30 followed by 0.79 mg/kg serotonin at time 09:45. Polygraphic recordings were made from 10:00–16:00. Respiration BP, EEG, and EMG data were determined and recorded via the experimental procedure as specifically set forth above in Example 2. As in Example 2, sleep apneas, defined as cessation of respiratory effort for at least 2.5 s, were scored for each recording session and were associated with the stage in which they occurred: NREM or REM sleep. The duration requirement of 2.5 s represents at least two “missed” breaths, which is analogous to a 10-s apnea duration requirement in humans. The effects of sleep stage (NREM vs REM) and injection (control vs. administration of either serotonin alone, GR38032F+serotonin, or GR38032F alone) on apnea indexes, respiratory pattern, BP, and HP were tested using analysis of variance (ANOVA) with repeated measures. Multiple comparisons were controlled using Fisher's protected least-significance difference (PLSD). One-way ANOVA was also performed by nonparametric (Kruskal-Wallis) analysis. Conclusions using parametric and nonparametric ANOVA were identical in all cases.

The structures appear in SMILES notation. “Also recorded” adds a separate entry of the source.

As for `Cc1nccn1CC1CCc2c(c3ccccc3n2C)C1=O.Cl.O.O` (centres unmarked) [GR38032F, 1,2,3,9-tetrahydro-9-methyl-3-[(2-methylimidazol-1-yl)methyl]carbazole-4-one, hydrochloride, dihydrate], in assay [1], the “time for which REM sleep apneas were completely abolished following injection” value is listed as “at least 4 hours”. The “rate of apneas per hour of REM sleep” value in assay [1] (6 hour recording period, p=0.01 2-way ANOVA) is on record as “significant suppressant effect”. Besides, the “rate of apneas per hour of NREM sleep” value was “significant suppression of apneas” in assay [1] (first 2 hours of recording, paired t-tests p<0.01) and “no significant effect of treatment or time over 6 hours” in assay [1] (whole 6 hours of recording, two-way ANOVA vs saline control). Moreover, the “spontaneous apneas in REM sleep” value in assay [1] (first 4 hours of recordings) is “no animal exhibited a single spontaneous apnea in REM sleep”. For the same compound, the “antagonism of the serotonin-induced increase of REM sleep apneas” value in assay [2] (0.1 mg/kg GR38032F i.p. 15 min before 0.79 mg/kg serotonin, hydrochloride, dihydrate) was “abolished; also recorded: fully blocked”. Also, in assay [2] (GR38032F alone 0.1 mg/kg i.p.), the “effect on REM sleep spontaneous apneas” value is reported as “had no effect on REM sleep spontaneous apneas”. Further, in assay [2] (i.p., serotonin 0.79 mg/kg, GR38032F 0.1 mg/kg, 6 hour recording), the “spontaneous apnea index during NREM sleep” value was “not affected by any drug treatment”.

For the origin of these results see patent US7160898B2, “Pharmacological treatment for sleep apnea” (Board of Trustees of The University of Illinois, priority 2002, dated 2007).
